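These data come from cells grown in 96-well plates and exposed to compound for 48 hours at five concentrations. TGI marks complete inhibition of growth.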
Columns and labels:
Assay in all cases: NCI anticancer screen, dose series, 48 h
786-0 renal = test system: 786-0 renal
A498 renal = test system: A498 renal
A549 NSCLC = test system: A549 NSCLC
ACHN renal = test system: ACHN renal
BT-549 breast = test system: BT-549 breast
CAKI-1 renal = test system: CAKI-1 renal
CCRF-CEM leukemia = test system: CCRF-CEM leukemia
COLO 205 colon = test system: COLO 205 colon
DU-145 prostate = test system: DU-145 prostate
EKVX NSCLC = test system: EKVX NSCLC
HCC-2998 colon = test system: HCC-2998 colon
HCT-116 colon = test system: HCT-116 colon
HCT-15 colon = test system: HCT-15 colon
HOP-62 NSCLC = test system: HOP-62 NSCLC
HOP-92 NSCLC = test system: HOP-92 NSCLC
HS 578T breast = test system: HS 578T breast
HT29 colon = test system: HT29 colon
IGROV1 ovarian = test system: IGROV1 ovarian
K-562 leukemia = test system: K-562 leukemia
KM12 colon = test system: KM12 colon
LOX IMVI melanoma = test system: LOX IMVI melanoma
M14 melanoma = test system: M14 melanoma
MCF7 breast = test system: MCF7 breast
MDA-MB-231 breast = test system: MDA-MB-231 breast
MDA-MB-435 = test system: MDA-MB-435
MOLT-4 leukemia = test system: MOLT-4 leukemia
NCI-H226 lung = test system: NCI-H226 lung
NCI-H23 lung = test system: NCI-H23 lung
NCI-H522 lung = test system: NCI-H522 lung
NCI/ADR-RES ovarian = test system: NCI/ADR-RES ovarian
OVCAR-3 ovarian = test system: OVCAR-3 ovarian
OVCAR-4 ovarian = test system: OVCAR-4 ovarian
OVCAR-5 ovarian = test system: OVCAR-5 ovarian
OVCAR-8 ovarian = test system: OVCAR-8 ovarian
PC-3 prostate = test system: PC-3 prostate
RPMI-8226 leukemia = test system: RPMI-8226 leukemia
RXF 393 renal = test system: RXF 393 renal
SF-268 CNS = test system: SF-268 CNS
SF-295 CNS = test system: SF-295 CNS
SF-539 CNS = test system: SF-539 CNS
SK-MEL-2 melanoma = test system: SK-MEL-2 melanoma
SK-MEL-28 melanoma = test system: SK-MEL-28 melanoma
SK-MEL-5 melanoma = test system: SK-MEL-5 melanoma
SK-OV-3 ovarian = test system: SK-OV-3 ovarian
SN12C renal = test system: SN12C renal
SNB-19 CNS = test system: SNB-19 CNS
SNB-75 CNS = test system: SNB-75 CNS
SR leukemia = test system: SR leukemia
SW-620 colon = test system: SW-620 colon
T-47D breast = test system: T-47D breast
TK-10 renal = test system: TK-10 renal
U251 CNS = test system: U251 CNS
UACC-257 melanoma = test system: UACC-257 melanoma
UACC-62 melanoma = test system: UACC-62 melanoma
UO-31 renal = test system: UO-31 renal
HL-60(TB) leukemia = test system: HL-60(TB) leukemia
MALME-3M melanoma = test system: MALME-3M melanoma
NCI-H460 lung = test system: NCI-H460 lung

In the case of `COc1ccc2c(c1)CCN1CCCc3ccc(OC)cc3C21` (stereo not given), the TGI (786-0 renal) is reported as > 100 µM, the TGI (A498 renal) is reported as > 100 µM and the TGI (A549 NSCLC) is reported as > 100 µM. The TGI (ACHN renal) was > 100 µM, the TGI (BT-549 breast) was 89.3 µM and the TGI (CAKI-1 renal) was > 100 µM. For the same compound, the TGI (CCRF-CEM leukemia) was > 100 µM, the TGI (COLO 205 colon) was > 100 µM and the TGI (DU-145 prostate) was > 100 µM. The TGI (EKVX NSCLC) was > 100 µM, the TGI (HCC-2998 colon) was > 100 µM and the TGI (HCT-116 colon) was > 100 µM. For the same compound, the TGI (HCT-15 colon) was > 100 µM, the TGI (HOP-62 NSCLC) was > 100 µM and the TGI (HOP-92 NSCLC) was > 100 µM. The TGI (HS 578T breast) was > 100 µM, the TGI (HT29 colon) was > 100 µM and the TGI (IGROV1 ovarian) was > 100 µM. The TGI (K-562 leukemia) was > 100 µM, the TGI (KM12 colon) was > 100 µM and the TGI (LOX IMVI melanoma) was > 100 µM. The TGI (M14 melanoma) was > 100 µM, the TGI (MCF7 breast) was > 100 µM and the TGI (MDA-MB-231 breast) was > 100 µM. For the same compound, the TGI (MDA-MB-435) was > 100 µM, the TGI (MOLT-4 leukemia) was > 100 µM and the TGI (NCI-H226 lung) was > 100 µM. For the same compound, the TGI (NCI-H23 lung) was > 100 µM, the TGI (NCI-H522 lung) was > 100 µM and the TGI (NCI/ADR-RES ovarian) was > 100 µM. The TGI (OVCAR-3 ovarian) was > 100 µM, the TGI (OVCAR-4 ovarian) was > 100 µM and the TGI (OVCAR-5 ovarian) was > 100 µM. For the same compound, the TGI (OVCAR-8 ovarian) was > 100 µM, the TGI (PC-3 prostate) was > 100 µM and the TGI (RPMI-8226 leukemia) was > 100 µM. The TGI (RXF 393 renal) was > 100 µM, the TGI (SF-268 CNS) was > 100 µM and the TGI (SF-295 CNS) was > 100 µM. For the same compound, the TGI (SF-539 CNS) was > 100 µM, the TGI (SK-MEL-2 melanoma) was > 100 µM and the TGI (SK-MEL-28 melanoma) was > 100 µM. The TGI (SK-MEL-5 melanoma) was > 100 µM, the TGI (SK-OV-3 ovarian) was > 100 µM and the TGI (SN12C renal) was > 100 µM. For the same compound, the TGI (SNB-19 CNS) was > 100 µM, the TGI (SNB-75 CNS) was 83.2 µM and the TGI (SR leukemia) was > 100 µM. For the same compound, the TGI (SW-620 colon) was > 100 µM, the TGI (T-47D breast) was > 100 µM and the TGI (TK-10 renal) was > 100 µM. For the same compound, the TGI (U251 CNS) was > 100 µM, the TGI (UACC-257 melanoma) was > 100 µM and the TGI (UACC-62 melanoma) was > 100 µM. The TGI (UO-31 renal) was > 100 µM.
With `CS/C(=N\S(=O)(=O)c1cc(C)c(Cl)cc1Cl)NNc1cnc2ccccc2n1` the TGI (786-0 renal) was > 100 µM, the TGI (A498 renal) was > 100 µM and the TGI (A549 NSCLC) was > 100 µM. The TGI (ACHN renal) was > 100 µM, the TGI (BT-549 breast) was > 100 µM and the TGI (CAKI-1 renal) was > 100 µM. For the same compound, the TGI (CCRF-CEM leukemia) was > 100 µM, the TGI (COLO 205 colon) was > 100 µM and the TGI (DU-145 prostate) was > 100 µM. For the same compound, the TGI (EKVX NSCLC) was > 100 µM, the TGI (HCC-2998 colon) was > 100 µM and the TGI (HCT-116 colon) was > 100 µM. For the same compound, the TGI (HCT-15 colon) was > 100 µM, the TGI (HL-60(TB) leukemia) was > 100 µM and the TGI (HOP-62 NSCLC) was > 100 µM. The TGI (HOP-92 NSCLC) was > 100 µM, the TGI (HS 578T breast) was > 100 µM and the TGI (HT29 colon) was > 100 µM. For the same compound, the TGI (IGROV1 ovarian) was > 100 µM, the TGI (K-562 leukemia) was > 100 µM and the TGI (KM12 colon) was > 100 µM. For the same compound, the TGI (LOX IMVI melanoma) was > 100 µM, the TGI (M14 melanoma) was > 100 µM and the TGI (MALME-3M melanoma) was > 100 µM. For the same compound, the TGI (MCF7 breast) was > 100 µM, the TGI (MDA-MB-231 breast) was > 100 µM and the TGI (MDA-MB-435) was > 100 µM. For the same compound, the TGI (MOLT-4 leukemia) was > 100 µM, the TGI (NCI-H226 lung) was > 100 µM and the TGI (NCI-H23 lung) was > 100 µM. For the same compound, the TGI (NCI-H460 lung) was > 100 µM, the TGI (NCI-H522 lung) was > 100 µM and the TGI (NCI/ADR-RES ovarian) was > 100 µM. The TGI (OVCAR-3 ovarian) was > 100 µM, the TGI (OVCAR-4 ovarian) was > 100 µM and the TGI (OVCAR-5 ovarian) was > 100 µM. For the same compound, the TGI (OVCAR-8 ovarian) was > 100 µM, the TGI (PC-3 prostate) was > 100 µM and the TGI (RXF 393 renal) was > 100 µM. The TGI (SF-268 CNS) was > 100 µM, the TGI (SF-295 CNS) was > 100 µM and the TGI (SF-539 CNS) was > 100 µM. For the same compound, the TGI (SK-MEL-28 melanoma) was > 100 µM, the TGI (SK-MEL-5 melanoma) was > 100 µM and the TGI (SK-OV-3 ovarian) was > 100 µM. The TGI (SN12C renal) was > 100 µM, the TGI (SNB-19 CNS) was > 100 µM and the TGI (SNB-75 CNS) was > 100 µM. For the same compound, the TGI (SW-620 colon) was > 100 µM, the TGI (T-47D breast) was > 100 µM and the TGI (TK-10 renal) was > 100 µM. The TGI (U251 CNS) was > 100 µM, the TGI (UACC-257 melanoma) was > 100 µM and the TGI (UACC-62 melanoma) was > 100 µM. The TGI (UO-31 renal) was > 100 µM.
